Assay results from publication PMC10060639, “Prediction and bioactivity of small-molecule antimicrobial peptides from Protaetia brevitarsis Lewis larvae” (Frontiers in Microbiology, 2023).
Where two headings read alike, the source gives them in different places. Ends that are not written are not given here.

What was measured:
B. thuringiensis [1] = assay: agar punch method, inhibition circle; type: cell-based, Bacillus thuringiensis; conditions: 6 mm hole, 55 μL of 1 mg/mL, NA, 37°C (Fig. S3C: 30°C), 16–18 h, mean ± SD, three replicates, + control given per plate group
Procedure: (§1) Staphylococcus aureus CMCC(B) 26003, B. thuringiensis, E. coli, and P. aeruginosa CMCC(B)10104 were cultured in NA medium and C. albicans CMCC(F) 98001 was cultured in SDA medium. They were incubated in a constant-temperature (bacteria: 37°C; fungi: 28°C) incubator for 16–20 h. Thereafter, single colonies were picked and incubated in 50 mL MHB at 160 rpm/min at the optimal growth temperature (bacteria: 37°C; fungi: 28°C). Microbial suspensions of 1 × 10^6 CFU/mL were then prepared ([Chen et al., 2016]).
(§2) 100 μL of 1 × 10^6 CFU/mL microbial suspension (E. coli, P. aeruginosa CMCC(B)10104, B. thuringiensis, S. aureus CMCC(B) 26003, or C. albicans CMCC(F) 98001) was evenly applied to dishes containing 20 mL NA (bacteria) or SDA (fungi). After the microbial solution solidified, six holes per dish were punched with a sterile pipette tip of 6 mm in diameter, with each hole spaced >20 mm apart and > 10 mm apart from the edge of the dish. […] Next, 55 μL of 1 mg/mL control/treatment was added to each hole and incubated in a constant-temperature (bacteria: 37°C; fungi: 28°C) incubator for 16–18 h ([Chen et al., 2016]; [Gong et al., 2022]), with three replicates for each treatment group. The diameter of the inhibition circle was measured using ImageJ software (National Institutes of Health, United States) in order to preliminarily determine whether the candidate peptides had inhibitory activity.

[2] = system: P. aeruginosa CMCC(B)10104; assay: agar punch method, inhibition circle; type: cell-based, Pseudomonas aeruginosa; conditions: 6 mm hole, 55 μL of 1 mg/mL, NA, 37°C, 16–18 h, mean ± SD, three replicates, + control given per plate group
Procedure: as §1, §2

S. aureus CMCC(B) 26003 [3] = assay: agar punch method, inhibition circle; type: cell-based, Staphylococcus aureus; conditions: 6 mm hole, 55 μL of 1 mg/mL, NA, 37°C, 16–18 h, mean ± SD, three replicates, + control given per plate group
Procedure: as §1, §2

[4] = system: C. albicans CMCC(F) 98001; assay: agar punch method, inhibition circle; type: cell-based, Candida albicans; conditions: 6 mm hole, 55 μL of 1 mg/mL, SDA, 28°C, 16–18 h, mean ± SD, three replicates, + control given per plate group
Procedure: as §1, §2

E. coli [5] = assay: agar punch method, inhibition circle; type: cell-based, Escherichia coli; conditions: 6 mm hole, 55 μL of 1 mg/mL, NA, 37°C, 16–18 h, mean ± SD, three replicates, + control given per plate group
Procedure: as §1, §2

B. thuringiensis [6] = type: cell-based, Bacillus thuringiensis
Procedure: as §1
(§3) The MIC values of five candidate peptides (FD4, FD10, FD12, FD14, and FD15), which were selected based on physicochemical properties and antimicrobial effects (determined by the agar punch method), were evaluated using a micro-broth dilution method ([Zhou and Zhou, 2018]). Serial two-fold dilutions of the candidate peptides were prepared in 96-well plates containing the same microbial inoculum (E. coli, P. aeruginosa CMCC(B)10104, B. thuringiensis, S. aureus CMCC(B) 26003, or C. albicans CMCC(F) 98001). The plates were incubated (bacteria: 37°C; fungi: 28°C) for 16–18 h. Ampicillin was used as the positive control. The MIC was defined as the lowest peptide concentration where no visible growth occurred ([Diao et al., 2014]). The experiment was conducted in triplicate.

E. coli [7] = assay: time-kill assay; type: cell-based, Escherichia coli; conditions: 2× MIC, MHB with 10^6 CFU/mL, 37°C, 100 rpm, colony counting, n = 3
Procedure: (§4) The kill-time curve assay method was used to investigate the bactericidal effects of the […] according to the technique described by [Joray et al. (2011)]. A time–kill assay was used to examine the rate at which three AMPs (FD10, FD12, and FD15) killed two microbes (S. aureus CMCC(B) 26003 and E. coli) in vitro over time, based on the number of viable bacteria left at various time points after AMP exposure. Briefly, AMP at 2× MIC was added to MHB containing 10^6 CFU/mL S. aureus CMCC(B) 26003 or E. coli and the mixture was then incubated at 37°C and 100 rpm. At various time points, a sample was taken, serially diluted, and plated on MHA for colony counting ([Flamm et al., 2019]).

E. coli [8] = type: cell-based, Escherichia coli
Procedure: (§5) E. coli and S. aureus CMCC(B) 26003 (1 × 10^6 CFU/mL) were incubated in MHB with various final physiological concentrations of serum salts (150 mM NaCl, 4.5 mM KCl, 1 mM MgCl2, and […]). 50 μL of these E. coli or S. aureus CMCC(B) 26003 suspensions and 50 μL of AMP (serially diluted two-fold to a final concentration of 256 μg/mL) were added to a 96-well plate and incubated at 37°C for 16–18 h ([Chou et al., 2016]). The MIC values were then determined. The experiment was conducted in triplicate.

S. aureus CMCC(B) 26003 [9] = type: cell-based, Staphylococcus aureus
Procedure: as §1, §3

[10] = system: P. aeruginosa CMCC(B)10104; type: cell-based, Pseudomonas aeruginosa
Procedure: as §1, §3

S. aureus CMCC(B) 26003 [11] = assay: time-kill assay; type: cell-based, Staphylococcus aureus; conditions: 2× MIC, MHB with 10^6 CFU/mL, 37°C, 100 rpm, colony counting, n = 3
Procedure: as §4

S. aureus CMCC(B) 26003 [12] = type: cell-based, Staphylococcus aureus; remark: listed apart in the source
Procedure: as §5

E. coli [13] = type: cell-based, Escherichia coli; remark: listed apart in the source
Procedure: as §1, §3

[14] = system: C. albicans CMCC(F) 98001; type: cell-based, Candida albicans
Procedure: as §1, §3

[15] = micro-broth dilution, two-fold dilutions, 37°C, 16–18 h, no visible growth, triplicate

Substance | Inhibition circle diameter (mm) B. thuringiensis (B. thuringiensis [1]) | Inhibition circle diameter (mm) P. aeruginosa CMCC(B)10104 [2] | Inhibition circle diameter (mm) S. aureus CMCC(B) 26003 (S. aureus CMCC(B) 26003 [3]) | Inhibition circle diameter (mm) C. albicans CMCC(F) 98001 [4] | Inhibition circle diameter (mm) E. coli (E. coli [5]) | also measured
LARTLKRLGM [FD2] | 0 mm | 0 mm | 0 mm | 0 mm | 0 mm | –
LVTRAAFHGKKV [FD8] | 0 mm | 0 mm | 0 mm | 0 mm | 0 mm | –
RIGRLVTRAAF [FD7] | 0 mm | 0 mm | 0 mm | 0 mm | 0 mm | –
SLARAGKVR [FD9] | 0 mm | 0 mm | 0 mm | 0 mm | 0 mm | –
STLHLVLRLR [FD16] | 0 mm | 0 mm | 0 mm | 0 mm | 0 mm | –
STLHLVLRLR-NH2 [FD15, FD16 with -NH2 added to the terminal] | 9.15 ± 0.44 mm | 0 mm | 10.02 ± 0.22 mm | 0 mm | 11.18 ± 0.38 mm | MIC (μg/mL) B. thuringiensis (B. thuringiensis [6]; [15]): 128 µg/mL; time within which almost all E. coli cells were killed (E. coli [7]): ≤ 1 h; MIC, MgCl2 (E. coli [8]; E. coli, MHB with 1 mM MgCl2, 37°C, 16–18 h, triplicate): 64 µg/mL; MIC, FeCl3 (E. coli [8]; E. coli, MHB with 4 mM FeCl3, 37°C, 16–18 h, triplicate): 16 µg/mL; MIC, KCl (E. coli [8]; E. coli, MHB with 4.5 mM KCl, 37°C, 16–18 h, triplicate): 64 µg/mL; MIC, NaCl (E. coli [8]; E. coli, MHB with 150 mM NaCl, 37°C, 16–18 h, triplicate): 64 µg/mL; MIC, Control (E. coli [8]; E. coli, MHB, absence of physiological salts, 37°C, 16–18 h, triplicate): 32 µg/mL; MIC (μg/mL) S. aureus CMCC(B) 26003 (S. aureus CMCC(B) 26003 [9]; [15]): 16 µg/mL; MIC (μg/mL) P. aeruginosa CMCC(B)10104 [10, 15]: - (−Indicated that the MIC was greater than 256 μg/mL.); time within which almost all S. aureus cells were killed (S. aureus CMCC(B) 26003 [11]): ≤ 1 h; MIC, MgCl2 (S. aureus CMCC(B) 26003 [12]; S. aureus CMCC(B) 26003, MHB with 1 mM MgCl2, 37°C, 16–18 h, triplicate): 64 µg/mL; MIC, FeCl3 (S. aureus CMCC(B) 26003 [12]; S. aureus CMCC(B) 26003, MHB with 4 mM FeCl3, 37°C, 16–18 h, triplicate): 32 µg/mL; MIC, KCl (S. aureus CMCC(B) 26003 [12]; S. aureus CMCC(B) 26003, MHB with 4.5 mM KCl, 37°C, 16–18 h, triplicate): 32 µg/mL; MIC, NaCl (S. aureus CMCC(B) 26003 [12]; S. aureus CMCC(B) 26003, MHB with 150 mM NaCl, 37°C, 16–18 h, triplicate): 64 µg/mL; MIC, Control (S. aureus CMCC(B) 26003 [12]; S. aureus CMCC(B) 26003, MHB, absence of physiological salts, 37°C, 16–18 h, triplicate): 16 µg/mL; MIC (μg/mL) E. coli (E. coli [13]; [15]): 32 µg/mL; MIC (μg/mL) C. albicans CMCC(F) 98001 ([14]; micro-broth dilution, two-fold dilutions, 28°C, 16–18 h, no visible growth, triplicate): - (−Indicated that the MIC was greater than 256 μg/mL.)
VACAKRVVR [FD1] | 0 mm | 0 mm | 0 mm | 0 mm | 0 mm | –
VFRLKKWIQKVI [FD10] | – | – | – | – | – | MIC (μg/mL) B. thuringiensis (B. thuringiensis [6]): 8 µg/mL; MIC, Control (E. coli [8]): 8 µg/mL; MIC, FeCl3 (E. coli [8]): 4 µg/mL; MIC, KCl (E. coli [8]): 4 µg/mL; MIC, MgCl2 (E. coli [8]): 16 µg/mL; MIC, NaCl (E. coli [8]): 16 µg/mL; MIC (μg/mL) S. aureus CMCC(B) 26003 (S. aureus CMCC(B) 26003 [9]; CMCC(B) 26003): 16 µg/mL; MIC (μg/mL) P. aeruginosa CMCC(B)10104 ([10]; CMCC(B)10104): 8 µg/mL; MIC, Control (S. aureus CMCC(B) 26003 [12]; CMCC(B) 26003): 16 µg/mL; MIC, FeCl3 (S. aureus CMCC(B) 26003 [12]; CMCC(B) 26003): 16 µg/mL; MIC, KCl (S. aureus CMCC(B) 26003 [12]; CMCC(B) 26003): 8 µg/mL; MIC, MgCl2 (S. aureus CMCC(B) 26003 [12]; CMCC(B) 26003): 32 µg/mL; MIC, NaCl (S. aureus CMCC(B) 26003 [12]; CMCC(B) 26003): 32 µg/mL; MIC (μg/mL) E. coli (E. coli [13]): 8 µg/mL; MIC (μg/mL) C. albicans CMCC(F) 98001 ([14]; CMCC(F) 98001): 16 µg/mL
